Reference: patent US9364482B2, “Substituted benzofuran compounds and methods of use thereof for the treatment of viral diseases” (priority 2013, dated 2016)

What was measured:
HCV replicon genotype 1b = experiment: microbe, parasite or virus in culture; type: cell-based, hepatitis C virus (HCV); conditions: Hepatitis C virus, 96 h, read-out: 1b IC50 (nM)
HCV replicon genotype 1a = experiment: microbe, parasite or virus in culture; type: cell-based, hepatitis C virus (HCV); conditions: Hepatitis C virus, 96 h, read-out: 1a IC50 (nM)

Compound | IC50 (HCV replicon genotype 1b) [nM] | IC50 (HCV replicon genotype 1a) [nM]
CNC(=O)c1c(-c2ccc(F)cc2)oc2cc(N(C)S(C)(=O)=O)c(-c3ccc4c(n3)C(=O)N(Cc3ccccc3F)CO4)cc12 [Compound 8] | 2.62 | 5.87
CNC(=O)c1c(-c2ccc(F)cc2)oc2cc(N(C)S(C)(=O)=O)c(-c3cc(OC)c4nnn(Cc5ccc(F)cc5)c(=O)c4c3)cc12 [Compound 71, 5-[3-(4-fluorobenzyl)-8-methoxy-4-oxo-3,4-dihydro-1,2,3-benzotriazin-6-yl]-2-(4-fluorophenyl)-N-methyl-6-[methyl(methylsulfonyl)amino]-1-benzofuran-3-carboxamide] | 0.782 | 3.49
CNC(=O)c1c(-c2ccc(F)cc2)oc2cc(N(C)S(C)(=O)=O)c(-c3ccc4nnn(C(CO)c5ccccc5)c(=O)c4c3)cc12 (centres unmarked) [Compound 43, 2-(4-fluorophenyl)-5-[3-(2-hydroxy-1-phenylethyl)-4-oxo-3,4-dihydro-1,2,3-benzotriazin-6-yl]-N-methyl-6-[methyl(methylsulfonyl)amino]-1-benzofuran-3-carboxamide] | 9.66 | 15.1
CNC(=O)c1c(-c2ccc(F)cc2)oc2cc(N(C)S(C)(=O)=O)c(-c3ccc4nc(CNC(C)=O)n(Cc5ccc(F)cc5)c(=O)c4c3)cc12 [Compound 54, 5-{2-[(acetylamino)methyl]-3-(4-fluorobenzyl)-4-oxo-3,4-dihydroquinazolin-6-yl}-2-(4-fluorophenyl)-N-methyl-6-[methyl(methylsulfonyl)amino]-1-benzofuran-3-carboxamide] | 2.73 | 2.34
CNC(=O)c1c(-c2ccc(F)cc2)oc2cc(N(C)S(C)(=O)=O)c(-c3ccc4c(n3)C(=O)N(Cc3ccccc3)CO4)cc12 [Compound 1, 5-(3-benzyl-4-oxo-3,4-dihydro-2H-pyrido[2,3-e][1,3]oxazin-6-yl)-2-(4-fluorophenyl)-N-methyl-6-(N-methylmethylsulfonamido)benzofuran-3-carboxamide] | 2.44 | 3.22
CNC(=O)c1c(-c2ccc(F)cc2)oc2cc(N(C)S(C)(=O)=O)c(-c3cnc4ncn(Cc5ccc(F)cc5)c(=O)c4c3)cc12 [Compound 24] | 2.57 | 2.59
CNC(=O)c1c(-c2ccc(F)cc2)oc2cc(N(C)S(C)(=O)=O)c(-c3ccc4nc(C)n([C@H](CCO)c5ccc(F)cc5)c(=O)c4n3)cc12 [Compound 66, (R)-2-(4-fluorophenyl)-5-(3-(1-(4-fluorophenyl)-3-hydroxypropyl)-2-methyl-4-oxo-3,4-dihydropyrido[3,2-d]pyrimidin-6-yl)-N-methyl-6-(N-methylmethylsulfonamido)benzofuran-3-carboxamide] | 4.06 | 7.29
CNC(=O)c1c(-c2ccc(F)cc2)oc2cc(N(C)S(C)(=O)=O)c(-c3ccc4nnn([C@H](CO)c5ccc(F)cc5)c(=O)c4c3)cc12 [Compound 40, 2-(4-fluorophenyl)-5-{3-[(1S)-1-(4-fluorophenyl)-2-hydroxyethyl]-4-oxo-3,4-dihydro-1,2,3-benzotriazin-6-yl}-N-methyl-6-[methyl(methylsulfonyl)amino]-1-benzofuran-3-carboxamide] | 9.03 | 6.19
CNC(=O)c1c(-c2ccc(F)cc2)oc2cc(N(C)S(C)(=O)=O)c(-c3ccc4ncn([C@H](C)c5ccc(F)cc5)c(=O)c4c3)cc12 [Compound 50, 2-(4-fluorophenyl)-5-{3-[(1R)-1-(4-fluorophenyl)ethyl]-4-oxo-3,4-dihydroquinazolin-6-yl}-N-methyl-6-[methyl(methylsulfonyl)amino]-1-benzofuran-3-carboxamide] | 4.23 | 3.18
CNC(=O)c1c(-c2ccc(F)cc2)oc2cc(N(C)S(C)(=O)=O)c(-c3ccc4nnn(Cc5ccccc5)c(=O)c4c3)cc12 [Compound 42, 5-(3-benzyl-4-oxo-3,4-dihydro-1,2,3-benzotriazin-6-yl)-2-(4-fluorophenyl)-N-methyl-6-[methyl(methylsulfonyl)amino]-1-benzofuran-3-carboxamide] | 9.55 | 9.48
CNC(=O)c1c(-c2ccc(F)cc2)oc2cc(N(C)S(C)(=O)=O)c(-c3ccc4nc(C)n(Cc5ccc(F)cc5F)c(=O)c4n3)cc12 [Compound 64, 5-(3-(2,4-difluorobenzyl)-2-methyl-4-oxo-3,4-dihydropyrido[3,2-d]pyrimidin-6-yl)-2-(4-fluorophenyl)-N-methyl-6-(N-methylmethylsulfonamido)benzofuran-3-carboxamide] | 3.63 | 4.12
CNC(=O)c1c(-c2ccc(F)cc2)oc2cc(N(C)S(C)(=O)=O)c(-c3ccc4c(n3)C(=O)N(CCc3ccccc3)CO4)cc12 [Compound 4] | 15.2 | 39.9
CNC(=O)c1c(-c2ccc(F)cc2)oc2cc(N(C)S(C)(=O)=O)c(-c3ccc4c(n3)C(=O)N(c3cccc(F)c3)CO4)cc12 [Compound 3] | 2.84 | 4.83
CNC(=O)c1c(-c2ccc(F)cc2)oc2ccc(-c3ccc4c(n3)C(=O)N(Cc3ccc(F)cc3)CO4)cc12 [Compound 34, 5-(3-(4-fluorobenzyl)-4-oxo-3,4-dihydro-2H-pyrido[2,3-e][1,3]oxazin-6-yl)-2-(4-fluorophenyl)-N-methylbenzofuran-3-carboxamide] | 10400 | 8930
CNC(=O)c1c(-c2ccc(F)cc2)oc2cc(N(C)S(C)(=O)=O)c(-c3cc(C)c4nnn(Cc5ccc(F)cc5)c(=O)c4c3)cc12 [Compound 74, 5-[3-(4-fluorobenzyl)-8-methyl-4-oxo-3,4-dihydro-1,2,3-benzotriazin-6-yl]-2-(4-fluorophenyl)-N-methyl-6-[methyl(methylsulfonyl)amino]-1-benzofuran-3-carboxamide] | 7.08 | 11.9
CNC(=O)c1c(-c2ccc(F)cc2)oc2cc(N(C)S(C)(=O)=O)c(-c3cnc4ncn(-c5cccc(F)c5)c(=O)c4c3)cc12 [Compound 23] | 3.24 | 3.98
CNC(=O)c1c(-c2ccc(F)cc2)oc2cc(N(C)S(C)(=O)=O)c(-c3cc4c(=O)n(Cc5ccc(F)cc5)nnc4cc3Cl)cc12 [Compound 73, 5-[7-chloro-3-(4-fluorobenzyl)-4-oxo-3,4-dihydro-1,2,3-benzotriazin-6-yl]-2-(4-fluorophenyl)-N-methyl-6-[methyl(methylsulfonyl)amino]-1-benzofuran-3-carboxamide] | 7.65 | 11.6
CNC(=O)c1c(-c2ccc(F)cc2)oc2cc(N(C)S(C)(=O)=O)c(-c3ccc4nnn([C@@H](C)c5ccc(F)cc5)c(=O)c4c3)cc12 [Compound 45, 2-(4-fluorophenyl)-5-{3-[(1S)-1-(4-fluorophenyl)ethyl]-4-oxo-3,4-dihydro-1,2,3-benzotriazin-6-yl}-N-methyl-6-[methyl(methylsulfonyl)amino]-1-benzofuran-3-carboxamide] | 17.5 | 35
CNC(=O)c1c(-c2ccc(F)cc2)oc2cc(N(C)S(C)(=O)=O)c(-c3cc4c(=O)n(Cc5ccc(F)cc5)nnc4cc3F)cc12 [Compound 70, 5-(7-fluoro-3-(4-fluorobenzyl)-4-oxo-3,4-dihydrobenzo[d][1,2,3]triazin-6-yl)-2-(4-fluorophenyl)-N-methyl-6-(N-methylmethylsulfonamido)benzofuran-3-carboxamide] | 2.61 | 11.3
CNC(=O)c1c(-c2ccc(F)cc2)oc2ccc(-c3ccc4c(n3)C(=O)N(C(C)(C)c3ccc(F)cc3)CO4)cc12 [Compound 33, 2-(4-fluorophenyl)-5-(3-(2-(4-fluorophenyl)propan-2-yl)-4-oxo-3,4-dihydro-2H-pyrido[2,3-e][1,3]oxazin-6-yl)-N-methylbenzofuran-3-carboxamide] | 1690 | 708
CNC(=O)c1c(-c2ccc(F)cc2)oc2cc(N(C)S(C)(=O)=O)c(-c3cc(OC)c4nc(C)n(Cc5ccc(F)cc5)c(=O)c4c3)cc12 [Compound 69, 5-(3-(4-fluorobenzyl)-8-methoxy-2-methyl-4-oxo-3,4-dihydroquinazolin-6-yl)-2-(4-fluorophenyl)-N-methyl-6-(N-methylmethylsulfonamido)benzofuran-3-carboxamide] | 10.1 | 6.64
CNC(=O)c1c(-c2ccc(F)cc2)oc2cc(N(C)S(C)(=O)=O)c(-c3ccc4oc(=O)n(Cc5ccc(F)cc5)c(=O)c4n3)cc12 [Compound 14, 5-(3-(4-fluorobenzyl)-2,4-dioxo-3,4-dihydro-2H-pyrido[2,3-e][1,3]oxazin-6-yl)-2-(4-fluorophenyl)-N-methyl-6-(N-methylmethylsulfonamido)benzofuran-3-carboxamide] | 35.9 | 435
CNC(=O)c1c(-c2ccc(F)cc2)oc2cc(N(C)S(C)(=O)=O)c(-c3ccc4nnn(Cc5ccc(F)cn5)c(=O)c4c3)cc12 [Compound 48, 2-(4-fluorophenyl)-5-{3-[(5-fluoropyridin-2-yl)methyl]-4-oxo-3,4-dihydro-1,2,3-benzotriazin-6-yl}-N-methyl-6-[methyl(methylsulfonyl)amino]-1-benzofuran-3-carboxamide] | 5.97 | 6.93
CNC(=O)c1c(-c2ccc(F)cc2)oc2cc(N(C)S(C)(=O)=O)c(-c3ccc4nc(C)n([C@H](COC)c5ccc(F)cc5)c(=O)c4n3)cc12 [Compound 67, (S)-2-(4-fluorophenyl)-5-(3-(1-(4-fluorophenyl)-2-methoxyethyl)-2-methyl-4-oxo-3,4-dihydropyrido[3,2-d]pyrimidin-6-yl)-N-methyl-6-(N-methylmethylsulfonamido)benzofuran-3-carboxamide] | 3.77 | 4.97
CNC(=O)c1c(-c2ccc(F)cc2)oc2ccc(-c3ccc4c(n3)C(=O)N(Cc3ccc(F)cc3)CC4)cc12 [Compound 37, 5-(7-(4-fluorobenzyl)-8-oxo-5,6,7,8-tetrahydro-1,7-naphthyridin-2-yl)-2-(4-fluorophenyl)-N-methylbenzofuran-3-carboxamide] | 11.4 | 77.3
